Measured values: the supplement of paper PMC6723410

The molecules below were run on GUMC-403 (assay: viability at highest tested concentration (max response) relative to DMSO (% of DMSO control); higher = less cytotoxic). Conditions: library / dose series: MIPE library, 11-point 1:3 dilution; top concentration 11.1 µM; 48 h.
Method in brief: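 Each figure stands for viability at the highest tested concentration compared with vehicle control. It was measured by CellTiter-Glo luminescence on a ViewLux after 48 h of exposure to 23 nL of pinned compound, with vehicle wells taken as 100% and empty wells as 0%. The cells were patient-derived GUMC-403 papilloma cells grown by conditional reprogramming, plated at 700/well in 5 μL F + Y medium in 1536-well plates.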

SMILES	viability
CO[C@H]1/C=C/O[C@@]2(C)Oc3c(C)c(O)c4c(O)c(c(/C=N/N5CCN(C)CC5)c(O)c4c3C2=O)NC(=O)/C(C)=C\C=C\[C@H](C)[C@H](O)[C@@H](C)[C@@H](O)[C@@H](C)[C@H](OC(C)=O)[C@@H]1C	107

Same assay, conditions: library / dose series: MIPE library, 11-point 1:3 dilution; top concentration 23 µM; 48 h

SMILES	viability
N=C1N[C@H]2[C@H](CS[C@H]2CCCCC(=O)O)N1	134

Same assay, conditions: library / dose series: MIPE library, 11-point 1:3 dilution; top concentration 46.1 µM; 48 h

SMILES	viability
C\C1=C(\C=C(C#N)/C(=O)N1)C2=C[N]3C=CN=C3C=C2	96
CC(=O)N[C@H]1[C@H](O[C@@H]2c3ccc(c(Cl)c3)Oc3cc4cc(c3O[C@@H]3O[C@H](CO)[C@@H](O)[C@H](O)[C@H]3NC(=O)CCCCCCCC(C)C)Oc3ccc(cc3Cl)C[C@H]3NC(=O)[C@H](N)c5ccc(O)c(c5)Oc5cc(O)cc(c5)[C@H](NC3=O)C(=O)N[C@H]4C(=O)N[C@H]3C(=O)N[C@@H]2C(=O)N[C@@H](C(=O)O)c2cc(O)cc(O[C@H]4O[C@H](CO)[C@@H](O)[C@H](O)[C@@H]4O)c2-c2cc3ccc2O)O[C@H](CO)[C@@H](O)[C@@H]1O	121
O=C(O)c1ccc2c(c1)nc(Nc1cccc(Cl)c1)c1ccncc12	88.1
NCCCCCC(=O)O	130
NCC1(CC(=O)O)CCCCC1	115
Cc1ccccc1C(C(=O)NC1CCCCC1)N(C(=O)Cn1ccnc1C)c1cccc(F)c1 (stereo not drawn)	120
CC=CC1=C(C(=O)O)N2C(=O)[C@@H](NC(=O)[C@H](N)c3ccc(O)cc3)[C@H]2SC1.O	147
Cc1cccc(Nc2nc(-c3ccncc3)cs2)c1	109
NC(=O)c1ncn([C@@H]2O[C@H](CO)[C@@H](O)[C@H]2O)n1	99.6
Cn1cc(-c2cnn3c(N)c(Br)c([C@H]4CCCNC4)nc23)cn1	100
CCOC(=O)\C1=C\[C@@H](OC(CC)CC)[C@H](NC(C)=O)[C@@H](N)C1	123
COc1ccc(-c2cc3nccn3c(Nc3ncccc3C(N)=O)n2)cc1OC	107
NC[C@H]1O[C@H](O[C@H]2[C@H](O)[C@@H](O[C@H]3O[C@H](CO)[C@@H](O)[C@H](N)[C@H]3O)[C@H](N)C[C@@H]2N)[C@H](N)C[C@@H]1O	125
Cc1c(C(=O)NN2CCCCC2)nn(-c2ccc(Cl)cc2Cl)c1-c1ccc(Cl)cc1	109
CCCCCCCc1ccc(CCc2cccc(O)c2C(=O)O)cc1	108
CCCCCCCCCCCC(CC1OC(=O)C1CCCCCC)OC(=O)C(CC(C)C)NC=O (stereo not drawn)	101
CC(=O)O[C@@]12CO[C@@H]1C[C@H](O)[C@]3(C)[C@@H]2[C@H](OC(=O)C4=CC=CC=C4)[C@]5(O)C[C@H](O)/C(=C(/[C@@H](O)C3=O)C5(C)C)C	117
CC[C@H]1OC(=O)[C@H](C)[C@@H](O[C@H]2C[C@@](C)(OC)[C@@H](O)[C@H](C)O2)[C@H](C)[C@@H](O[C@@H]2O[C@H](C)C[C@H](N(C)C)[C@H]2O)[C@](C)(O)C[C@@H](C)/C(=N\OCOCCOC)[C@H](C)[C@@H](O)[C@]1(C)O	83.3
Nc1nc(F)nc2c1ncn2[C@@H]1O[C@H](COP(=O)(O)O)[C@@H](O)[C@@H]1O	101
Cc1ccc(Nc2cc(-c3cccc(N4C(=O)c5ccccc5C4=O)c3)ncn2)cc1N[S+](C)(=O)[O-]	117
CCOc1cc2c(c(F)c1OCC)C(=N)N(CC(=O)c1cc(N3CCOCC3)c(OC)c(C(C)(C)C)c1)C2	124
Clc1cc(Cl)cc(CNc2ncncc2-c2ccc3c(c2)OCO3)c1	99.6
Cc1nc(-c2ccc(OCC(C)C)c(C#N)c2)sc1C(=O)O	129
COC1=CC=CC(=C1N)\C2=C\C(=O)C3=C(O2)C=CC=C3	57.1
C[S+](=O)([O-])c1ccc([C@@H](O)[C@@H](CO)NC(=O)C(Cl)Cl)cc1	126
O=C(O)CCCCCC(=O)NN=C1CCCC1	108

SMILES	viability
CN(C/C=C/C#CC(C)(C)C)Cc1cccc2ccccc12	123
C#Cc1cccc(Nc2ncnc3cc(OCCOC)c(OCCO)cc23)c1	47.5
CCc1cccc(CC)c1NC(=O)N1Cc2[nH]nc(NC(=O)c3ccc(N4CCN(C)CC4)cc3)c2C1	87.2
COc1ccc(Cc2nccc3cc(OC)c(OC)cc23)cc1OC	109
COC[C@H](c1ccc(C(F)(F)F)cc1)N1CCN(C2(C)CCN(C(=O)c3c(C)ncnc3C)CC2)C[C@H]1C.O=C(O)/C=C\C(=O)O	57.9
Cn1c(=O)c2c(ncn2C)n(C)c1=O.O=C(O)CC(O)(CC(=O)O)C(=O)O	98.9
Cc1ccc(-c2cc(C(F)(F)F)nn2-c2ccc([S+](N)(=O)[O-])cc2)cc1	114
CCOC\1=C(/C(=O)NC2=CC=C(OC3=C(Cl)C(=NC=C3)N)C(=C2)F)C(=O)N(\C=C1)C4=CC=C(F)C=C4	77.8
O=C1c2c(O)cccc2[C@H]([C@@H]2O[C@H](CO)[C@@H](O)[C@H](O)[C@H]2O)c2cc(CO)cc(O)c21	119
COc1ccc(C(CN(C)C)C2(O)CCCCC2)cc1 (stereo not drawn)	100
Clc1ccc(COC(Cn2ccnc2)c2ccc(Cl)cc2Cl)c(Cl)c1 (stereo not drawn)	92.5
Cc1ccccc1C(C(=O)NC1CCCCC1)N(C(=O)CNc1ccc(C#N)cc1)c1cccc(F)c1 (stereo not drawn)	108
O=C(O)CCn1c2c(c3ccccc31)C[C@H](N[S+](=O)([O-])c1ccc(F)cc1)CC2	116
C[C@]12CC[C@H]3[C@@H](CC(=C)\C4=C\C(=O)\C=C/[C@]34C)[C@@H]1CCC2=O	112
CN1CCC(CNc2ccc3ncc(-c4cccc(OC(F)(F)F)c4)n3n2)CC1	52.5
CNC(=O)CN1CCC(Oc2cc3c(Nc4cccc(Cl)c4F)ncnc3cc2OC)CC1	61.1
COc1ccc(Cn2ccc3ccc(C(=O)NO)cc32)cc1	108
O=C1c2ccccc2-c2n[nH]c3cccc1c23	99.2
OC[C@H]1O[C@H]([C@H](O)[C@@H]1O)N2\C=C/C(=O)NC2=O	121
Cc1c[nH]c(/C=C2\C(=O)Nc3ccccc32)c1CCC(=O)O	136
CC1(C)O[C@@H]2C[C@H]3[C@@H]4C[C@H](F)C5=CC(=O)C=C[C@]5(C)[C@@]4(F)[C@@H](O)C[C@]3(C)[C@]2(C(=O)CO)O1	109
CN1CCCN=C1/C=C/c1cccs1.O=C(O)c1cc2ccccc2c(Cc2c(O)c(C(=O)O)cc3ccccc23)c1O	79.8
N#Cc1ccc(C(c2ccc(C#N)cc2)n2cncn2)cc1	95.7
NC[C@H]1O[C@H](O[C@@H]2[C@H](O)[C@@H](O[C@H]3O[C@H](CO)[C@@H](O)[C@H](N)[C@H]3O)[C@H](N)C[C@@H]2N)[C@H](O)[C@@H](O)[C@@H]1O	103
N=C(N)NC(=N)N1CCOCC1	132
Fc1ccc(CNc2ncnc3ccc(F)cc23)cc1	80.4

SMILES	viability
CC(C)OC1=CC=C2C(=C1)O\C=C(/C2=O)C3=CC=CC=C3	111
Nc1cc(N2CCCCC2)nc(N)[n+]1[O-]	91.1
COc1cccc(OC)c1-c1cc(C(=O)NC2(C(=O)O)C3CC4CC(C3)CC2C4)nn1-c1ccnc2cc(Cl)ccc12 (stereo not drawn)	124
OC[C@H]1O[C@@H]2[C@@H](OC\3=N\C(=N)\C=C/[N@@]23)[C@@H]1O	124
c1ccc2c(Cc3c[nH]c4ccccc34)c[nH]c2c1	75.9
C[C@@H]1CCO[C@H]2CN\3/C=C(/C(=O)NCC4=C(F)C=C(F)C=C4)C(=O)\C(=C3C(=O)N12)O	110
CC(C)OC(=O)CCC/C=C\C[C@@H]1[C@@H](/C=C/[C@@H](O)COc2cccc(C(F)(F)F)c2)[C@H](O)C[C@@H]1O	118
CC(C)NCC(O)COc1ccc(CCOCC2CC2)cc1 (stereo not drawn)	117
N/C(=N\C(=O)c1nc(Cl)c(N)nc1N)NCc1ccccc1	130
C/C=C/C(=O)N(CC)c1ccccc1C	110
CC[C@H]1OC(=O)[C@H](C)[C@@H](O[C@H]2C[C@@](C)(OC)[C@@H](O)[C@H](C)O2)[C@H](C)[C@@H](O[C@@H]2O[C@H](C)C[C@H](N(C)C)[C@H]2O)[C@](C)(O)C[C@@H](C)CN(C)[C@H](C)[C@@H](O)[C@]1(C)O	109
CCCCCCCCCCCCCC(=O)N[C@H](CO)[C@H](O)c1ccc([N+](=O)[O-])cc1	116
NC(=O)c1noc([C@H](CCCC2CCCCC2)CC(=O)NO)n1	118
CN1CCN(c2ccc([N+](=O)[O-])c3no[n+]([O-])c23)CC1	108
CCCOc1ccc2[nH]c(NC(=O)OC)nc2c1	108
CC/C=C\C[C@H]1C(=O)CC[C@@H]1CC(=O)OC	120
CNC(=O)c1cc(Oc2ccc(NC(=O)Nc3cc(C(C)(C)C)nn3-c3ccc4ncccc4c3)c(F)c2)ccn1	83.8
CC(C)(C)Cn1c(N)nc2ccc(-c3[nH]c(C(C)(C)C)nc3-c3ccc(F)cc3)nc21	76.7
Cn1cc(-c2ccc3nnc(C(F)(F)c4ccc5ncccc5c4)n3n2)cn1	110
Nc1nc(N)c(N=O)c(OCC2CCCCC2)n1	88.3
Cc1cc(Nc2ncnc3ccc(-c4ccc(CNCC[S+](C)(=O)[O-])o4)cc23)ccc1Oc1ccn2ncnc2c1	99.8
CNCC(O)c1ccc(O)cc1 (stereo not drawn)	132
C/C=C/C/C=C/CCC(=O)[C@H]1O[C@H]1C(N)=O	93.5
CN(C)c1cc(NC(=O)CNC(C)(C)C)c(O)c2c1C[C@H]1C[C@H]3[C@H](N(C)C)C(O)=C(C(N)=O)C(=O)[C@@]3(O)C(O)=C1C2=O	110
